Test results from patent US4521339A, “Ansatrienols” (Nisshin Flour Milling Co., Ltd., priority 1981, dated 1985).
≈ marks a conversion by molar mass, not a printed value. Entries after “also recorded” stand apart in the source; their conditions may differ.

Tests used:
[1] = test system: several types of tumor cells; assay: Growth inhibition of several types of tumor cells; format: cell-based; settings: statement in words
Acute toxicity = settings: mouse, in vivo, ip
Solubility in solvents = settings: for Solubility in solvents: organic solvents; for Soluble in (continued line of the solubility entry): organic solvents in which the substance is soluble, continuation line
[2] = test system: Mucor pusillus (IAM 6122); assay: Antimicrobial activity (MIC, dilution method); format: cell-based; settings: Rhizomucor pusillus, IAM6122, 30° C., 72 hours, read-out: MIC (minimum inhibitory concentration)
Protocol: (§1) The MIC (minimum inhibitory concentration) value of the T-23-I substance was determined by cultivation of a microorganism in a medium containing 1.0% glucose and 0.2% malt extract at 30° C. for 72 hours by a dilution method.
(§2) The MIC (minimum inhibitory concentration) value of the T-23-II substance was determined by cultivation of a microorganism in a medium containing 1.0% glucose and 0.2% malt extract at 30° C. for 72 hours by a dilution method.

[3] = test system: Saccharomyces cerevisiae (IFO 0304); assay: Antimicrobial activity (MIC, dilution method); format: cell-based; settings: IFO0304, 30° C., 72 hours, read-out: MIC (minimum inhibitory concentration)
Protocol: as §1, §2

[4] = test system: Candida utilis (IFO 0396); assay: Antimicrobial activity (MIC, dilution method); format: cell-based; settings: Williopsis jadinii, IFO0396, 30° C., 72 hours, read-out: MIC (minimum inhibitory concentration)
Protocol: as §1, §2

[5] = test system: Aspergillus japonicus (IAM 2016); assay: Antimicrobial activity (MIC, dilution method); format: cell-based; settings: IAM2016, 30° C., 72 hours, read-out: MIC (minimum inhibitory concentration)
Protocol: as §1, §2

[6] = test system: Saccharomyces rouxii (IFO 0505); assay: Antimicrobial activity (MIC, dilution method); format: cell-based; settings: Zygosaccharomyces rouxii, IFO0505, 30° C., 72 hours, read-out: MIC (minimum inhibitory concentration)
Protocol: as §1, §2

[7] = test system: Penicillium chrysogenum (IAM 7106); assay: Antimicrobial activity (MIC, dilution method); format: cell-based; settings: IAM7106, 30° C., 72 hours, read-out: MIC (minimum inhibitory concentration)
Protocol: as §1, §2

L-5178Y lymphoma cells = assay: Anti-tumor activity (in vitro) against L-5178Y lymphoma cells; format: cell-based; settings: statement in words
Protocol: The cell growth was observed by a dilution method using an Eagle-NEM medium (Nissui) supplemented with 10% horse serum and 100 mg/l asparagine and cultivated at 37° C. for 120 hours. The T-23-I substance in ethanol solution was added to an assay system.
The cell growth was observed by a dilution method using an Eagle-NEM medium (Nissui) supplemented with 10% horse serum and 100 mg/l asparagine and cultivated at 37° C. for 120 hours. The T-23-II substance in ethanol solution was added to an assay system.

mouse leukemia P-388 = assay: Anti-tumor activity against mouse leukemia P-388 (life span of mice); format: in vivo; settings: CDF1 mice
Protocol: (§3) To six CDF1 male mice (20±1 g) of one group, 10^6 ascites tumor P-388 cells were transplanted intraperitoneally. The test material was administered first 24 hours and then 120 hours after transplantation. The dose of the test material suspended in gum arabic was 0.2 ml for each time. Increased life span was expressed in terms of % of the life span of the control group (administered with a gum arabic suspension).
as §3, with “after transplantation of” for “and”, “six times every 24 hours.” for “120 hours after transplantation.”

mouse sarcoma 180 = assay: Anti-tumor activity against mouse sarcoma 180 (life span of mice); format: in vivo; settings: ICR mice
Protocol: To six ICR male mice (25±1 g) of one group, 10^6 sarcoma 180 ascites tumor cells were transplanted intraperitoneally. The test material was administered first three hours after transplantation and then four times every 24 hours. The dose of the test material (T-23-II substance) suspended in gum arabic was 0.2 ml for each time. Increased life span was expressed in terms of % of the life span of the control group (administered with a gum arabic suspension).

SMILES | inhibition of the growth of several types of tumor cells [1] | LD50 (Acute toxicity) | Solubility in solvents (Solubility in solvents) | Soluble in (continued line of the solubility entry) (Solubility in solvents) | Solubility in water (Solubility in solvents) | MIC [2] | MIC [3] | MIC [4] | MIC [5] | MIC [6] | MIC [7] | inhibition of the growth of L-5178Y lymphoma cells (L-5178Y lymphoma cells) | other results
COC1C=CC=CC=CCC(O)C(C)C(O)C(C)=CCCc2cc(O)cc(c2O)NC(=O)C1 (stereo not shown) [T-23-IV substance] | some significant effect to inhibit the growth of several types of tumor cells | ~280 mg/kg | Soluble in chloroform, ethyl acetate, methanol; also recorded: Sparingly soluble in benzene and toluene; also recorded: Insoluble in petroleum ether and water | ethanol, acetone and acetonitrile | Insoluble | – | – | – | – | – | – | – | –
COC1C=CC=CC=CCC(OC(=O)[C@@H](C)NC(=O)C2CCCCC2)C(C)C(O)C(C)=CCCC2=CC(=O)C=C(NC(=O)C1)C2=O (stereo partly shown) [T-23-I substance] | some significant effect to inhibit the growth of several types of tumor cells | 55.9 mg/kg | soluble in higher alcohols, acetone, chloroform, benzene and ethylacetate; also recorded: Soluble in methanol, ethanol, acetone; also recorded: Sparingly soluble in benzene and ether; also recorded: Insoluble in water, petroleum ether and hexane | chloroform and ethyl acetate | Insoluble in water | 12.5 µg/mL (≈ 19.6 µM) | 4 µg/mL (≈ 6.28 µM) | 4 µg/mL (≈ 6.28 µM) | 12.5 µg/mL (≈ 19.6 µM) | 4 µg/mL (≈ 6.28 µM) | 8 µg/mL (≈ 12.6 µM) | effective to inhibit the growth of L-5178Y lymphoma cells | Increased life span T/C (mouse leukemia P-388; 0.75 mg/kg/day × 2 times): 105.7%; Increased life span T/C (mouse leukemia P-388; 1.5 mg/kg/day × 2 times): 107.3%; Increased life span T/C (mouse leukemia P-388; 3 mg/kg/day × 2 times): 105.7%; Increased life span T/C (mouse leukemia P-388; 6 mg/kg/day × 2 times): 120.2%; Increased life span T/C (mouse leukemia P-388; 12 mg/kg/day × 2 times): 123.3%; Increased life span T/C (mouse leukemia P-388; 24 mg/kg/day × 2 times): 56.0%
COC1C=CC=CC=CCC(OC(=O)[C@@H](C)NC(=O)C2CCCCC2)C(C)C(O)C(C)=CCCc2cc(O)cc(c2O)NC(=O)C1 (stereo partly shown) [T-23-II substance] | some significant effect to inhibit the growth of several types of tumor cells | 85.5 mg/kg | soluble in higher alcohols, acetone, chloroform, benzene and ethylacetate; also recorded: Soluble in chloroform, methanol, ethanol; also recorded: Sparingly soluble in benzene and ether; also recorded: Insoluble in water, petroleum ether and hexane | acetone and ethyl acetate | Insoluble in water | 12.5 µg/mL (≈ 19.6 µM) | 4 µg/mL (≈ 6.26 µM) | 4 µg/mL (≈ 6.26 µM) | 12.5 µg/mL (≈ 19.6 µM) | 4 µg/mL (≈ 6.26 µM) | 12.5 µg/mL (≈ 19.6 µM) | effective to inhibit the growth of L-5178Y lymphoma cells | Increased life span T/C (mouse leukemia P-388; 1.25 mg/kg/day × 6 times): 130.0%; Increased life span T/C (mouse leukemia P-388; 2.5 mg/kg/day × 6 times): 109.9%; Increased life span T/C (mouse leukemia P-388; 5 mg/kg/day × 6 times): 127.1%; Increased life span T/C (mouse leukemia P-388; 10 mg/kg/day × 6 times): 120.2%; Increased life span T/C (mouse leukemia P-388; 20 mg/kg/day × 6 times): 135.7%; Increased life span T/C (mouse sarcoma 180; 0.7 mg/kg/day × 4 times): 109.6%; Increased life span T/C (mouse sarcoma 180; 2.2 mg/kg/day × 4 times): 95.6%; Increased life span T/C (mouse sarcoma 180; 6.6 mg/kg/day × 4 times): 115.0%; Increased life span T/C (mouse sarcoma 180; 20 mg/kg/day × 4 times): 138.7%
COC1C=CC=CC=CCC(O)C(C)C(O)C(C)=CCCC2=CC(=O)C=C(NC(=O)C1)C2=O (stereo not shown) [T-23-III substance] | some significant effect to inhibit the growth of several types of tumor cells | ~250 mg/kg | Soluble in chloroform, ethyl acetate, methanol; also recorded: Sparingly soluble in ethyl ether; also recorded: Insoluble in petroleum ether and water | toluene | Insoluble | – | – | – | – | – | – | – | –
